In US20230167155A1, “COMPOSITIONS AND METHODS” (KING'S COLLEGE LONDON, priority 2020, published 2023):
“Also recorded” adds a separate entry of the source. Where no end group is shown, it is not given here. The star is where a group is joined. Myristoyl = CCCCCCCCCCCCCC(=O)*

Tests used:
C57BL/6 mice [1] = test: Delayed type hypersensitivity, contact sensitivity to oxazolone (ear swelling); format: in vivo, mouse
Method: C57BL/6 mice were topically sensitised with oxazolone on the shaved abdomen on day 0. Treatment with either saline, PTL060 (10 mg/g), equimolar PTL0GC-1 or equimolar *3-MP was given on day 3 and day 5, the last immediately prior to re-challenge with oxazolone onto the right ear. The left ear was treated with vehicle alone. On day 6, the difference in swelling of the right and left ears was measured and is presented as D mean ear thickness.
This example uses a model of contact hypersensitivity. Here, mice are challenged on the abdomen with the contact sensitizer oxazolone, before a re-challenge […] on both sides of the ear with oxazolone (on the right) or vehicle alone (on the left).
Swelling of the ears, measured with a micrometer, reflects the influx of monocytes/macrophages and T cells in a typical delayed-type hypersensitivity (DTH) response.
FIG. 19: Model of DTH involving contact sensitivity to oxazolone. WT mice were administered a PAR-1 agonist or antagonist at the point of second exposure to oxazolone, before ear thickness was assessed 24 hours later, and mice sacrificed for immunohistological analysis of cross sections of the affected ears, to determine the proportional area occupied by CD68+ cells (macrophages). *p<0.05. **p<0.01. ***p<0.001

ApoE−/− mice [2] = test: Regression by weekly adoptive transfer of CD11b+ cells / monocytes pre-incubated with compound; format: in vivo, mouse; conditions: HFD 16 weeks, weekly IV 6 weeks; monocytes pre-treated 30 minutes, PTL060 100 microM or PTL0GC-1 25 microM
Method: In more detail, mechanistic insights: direct effect on monocyte/macrophage phenotype. ApoE−/− mice were fed a high fat diet for 16 weeks (baseline), prior to weekly IV treatment for 6 weeks with monocytes from BL6 mice, pre-treated for 30 minutes with either PTL060 (100 microM) or PTL0GC-1 (actually used at ¼ concentration-25 microM).
Extent of atherosclerosis was explored by en face examination of the surface area of aorta containing plaques using Oil-Red-O
Leukocytes were isolated from the blood of mice aged 8-10 weeks, using anti-CD11b MicroBeads (Miltenyi Biotec Ltd, Surrey, UK) according to manufacturers' instructions. For cell labelling, 2×10^7 CD11b+ cells were incubated with 4×10^−6 M of either PKH26 or PKH2 fluorescent dyes (Sigma, UK) for 5 minutes at 25° C. according to manufacturers' protocols, with the reaction stopped using 1% BSA in PBS followed by three washes. Each recipient mouse received 0.5×10^6 cells by IV injection; in some experiments, the cells were incubated with PTL060 (100 μM in 0.5 mls) or equimolar controls for 30 minutes at room temperature and washed three times before immediate injection. For viability assays, murine bone marrow cells were incubated for 5 days in 6 well plates, counted and re-seeded at 2×10^5 cells/ml in 24 well plates with 25 ng/ml MCSF. […]

C57BL/6 mice [3] = test: Ischaemia reperfusion injury, acute kidney injury; format: in vivo, mouse; conditions: 2 doses 7.5 mg/ml
Method: In more detail, Model 3: Ischaemia reperfusion injury: PTL0GC-1 induces quicker recovery, associated with reduced fibrosis, post acute kidney injury. Both kidneys of C57BL/6 mice were exposed under recovery anaesthesia, and both renal arteries completely occluded by clamps for 30 minutes, prior to release. 2 doses of PTL0GC-1 (7.5 mg/ml) or saline were administered to the mice immediately prior to clamping, and immediately prior to clamp release. Mice were allowed to recover and then monitored for 3 weeks, prior to euthanasia.

[4] = Aristolochic acid nephropathy (AAN) model of renal fibrosis; format: in vivo; conditions: vs equimolar PTL060 or pure PAR-1 antagonist
ApoE−/− mice [5] = test: Regression of established atheroma, weekly IV injections (Oil Red O en face, aortic root); format: in vivo, mouse; set-up: regression of atherosclerosis compared to PTL060 and untailed 3-MP: dose or concentration left out as unconfirmed
Method: For all atherosclerosis work, male ApoE−/− mice, from the age of 6-weeks, were fed with a high fat diet (HFD) consisting 35 kcal % fat, 1.25% cholesterol, and 0.5% cholic acid (Special Diet Services, Essex UK). Aortas were transplanted 2 weeks after starting the HFD, using a sleeve anastomosis technique described previously^11. Briefly, a 5 mm of the segment of the infrarenal donor aorta, flushed with 300 μl of saline containing 50 U of heparin, was transplanted into ApoE−/− recipient abdomen aortas (N=6 per group). Blood flow was confirmed by direct inspection after removal of the clamps. Mice were fed a HFD for 6-12 weeks post-transplantation before the experiment was terminated (Suppl FIG. 1A). To assess prevention of atheroma, mice (n=6 per group) received a single injection of PTL060 or controls by tail vein, and the experiments terminated 1-3 weeks later (Suppl FIG. 1B). For regression experiments, baseline groups (n=6) were fed a HFD to the age of 22 weeks before the mice were sacrificed. Experimental or control groups (n=3-6 per group) received weekly injections by tail vein for 3-6 weeks, beginning at age of 22 weeks before the experiments were terminated when mice were 25-28 weeks old (Suppl FIG. 1C).
Atherosclerotic lesions were evaluated as previously described^11. Simply, the entire length of the aorta was perfused with PBS, dissected using a dissecting microscope, longitudinally opened and stained with Oil Red O (ORO) solution (Sigma, UK) for 30 minutes, before being photographed with a digital camera (DSC-W320, Sony, Japan). The total aortic area and lesional area were measured by using Image J. Aortas from every animal were assessed. To assess lesions in the aortic sinus, hearts were embedded in paraffin, sectioned through the aortic root and incubated with elastin/van Gieson stain using the Accustain™ Elastin Stain kit (Sigma). Sections were examined on an Olympus U-ULH optical microscope (Olympus Optical Co. Ltd, Tokyo, Japan). Atheromatous lesional and total aortic root area was determined using Image-Pro Plus TM software version 4.0 (Media Cybernetics, Silver Spring, USA). At least three random sections were examined from each mouse in all groups.

In the case of “[Myr2]-KSSKSPSKKDDKKPGDK(CO—CH2-S—CH2-CH2-Phe-Cha-Cha-Arg-Lys-Pro-Asn-Asp-Lys-NH2)NH2 (K(Myristoyl)SSKSPSKKDDKKPGDK-NH2; not fully specified (residue 17, N-terminus); also: branched: thioether-linked Phe-Cha-Cha-Arg-Lys-Pro-Asn-Asp-Lys-NH2 on Lys17 side chain) [PTL0GC-1]”, the “DTH response, IP and SC administration” value (C57BL/6 mice [1]; intraperitoneal or subcutaneous, day 3 and day 5) is reported as “efficacy of both IP and SC administration; also recorded: can inhibit the DTH response”, the “difference in ear swelling (D mean ear thickness)” value (C57BL/6 mice [1]; intravenously, day 3 and day 5, equimolar to PTL060 (10 mg/g), vs PTL060 and 3-MP) is reported as “biggest effect” and the “macrophage infiltration into the skin” value (C57BL/6 mice [1]; model of DTH) is reported as “reduced macrophage infiltration into the skin”. The “regression after transfer of pre-treated monocytes” value (ApoE−/− mice [2]) was “the same degree of regression associated with IV treatment of the same reagents; also recorded: superior regression”, the “impact on the AKI” value (C57BL/6 mice [3]; prior to clamping and prior to clamp release, renal arteries clamped 30 minutes) was “no impact on the AKI” and the “kidney fibrosis, histological analysis” value (C57BL/6 mice [3]; 3 weeks) was “trend towards less fibrosis”. The “renal function” value (C57BL/6 mice [3]; by 3 weeks) was “better renal function by 3 weeks”, the “body weight during recovery phase” value (C57BL/6 mice [3]; monitored 3 weeks) was “gain weight quicker” and the “development of renal fibrosis, being confirmed” value [4] was “inhibits development of renal fibrosis”. The “regression of atherosclerosis, being confirmed” value (ApoE−/− mice [5]; ApoE−/− mice, vs equimolar PTL060 or pure PAR-1 antagonist) was “causes significant regression of atherosclerosis” and the “regression of atherosclerosis compared to PTL060 and untailed 3-MP” value (ApoE−/− mice [5]; HFD 16 weeks, weekly IV for 6 weeks, equimolar to PTL060) was “Superior regression”.
